Data on 19 compounds can be found in patent US12281122B1, “PI3K inhibitors” (Cogent Biosciences, Inc., priority 2023, dated 2025).

As usually defined, the IC50 is the concentration needed to halve the response being measured. Higher therefore signals a need for much substance.

Experiment [1] has as its system T47D (PI3Kα-H1047R) cell line. The experiment is described as follows: HTRF phospho-AKT(S473) cell assay in T47D cells. The experiment is classed as cell-based, human. Particulars: Homo sapiens, 2 hours compound incubation. In outline:
(§1)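 Cells plated overnight (T47D in RPMI/10% FBS/0.2 units/mL insulin; SKBR3 in McCoy's 5A/10% FBS), then given 12-point 1:3 compound series (top 5 μM T47D, 10 μM SKBR3; ≤0.5% DMSO) for 2 h at 37° C. SKBR3 stimulated with 70 ng/ml PDGF-BB for final 15 min. Lysate pAKT(S473) by HTRF; IC50 calculated.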
Background: Time-resolved FRET reads energy transfer from a long-lived donor to a nearby acceptor.

Experiment [2] relates to SKBR3 (PI3Kα-Wild Type) cell line. Briefly: HTRF phospho-AKT(S473) cell assay in SKBR3 cells. In kind it is cell-based, human. Particulars: Homo sapiens, SK-BR-3, 2 hours compound incubation, PDGF-BB stimulated. In a few lines: as §1
Setting [3] is: HTRF phospho-AKT(S473), T47D (PI3Kα-H1047R) cells.
Setting [4] is: HTRF phospho-AKT(S473), SKBR3 (PI3Kα-Wild Type) cells.
Where [5] appears, read: T47D (PI3Kα-H1047R) cells, HTRF phospho-AKT(S473).
Where [6] appears, read: SKBR3 (PI3Kα-Wild Type) cells, HTRF phospho-AKT(S473).

Structures are written as SMILES. Some results are limits rather than exact numbers.

As to `Cc1cc([C@@H](C)Nc2ccc(Cl)nc2C(=O)NS(C)(=O)=O)c2nc(N3CCC(c4cnc(C)nc4)CC3)n(C3CC3)c(=O)c2c1` [Compound 607, (R)-6-chloro-3-((1-(3-cyclopropyl-6-methyl-2-(4-(2-methylpyrimidin-5-yl)piperidin-1-yl)-4-oxo-3,4-dihydroquinazolin-8-yl)ethyl)amino)-N-(methylsulfonyl) picolinamide], the IC50 in experiment [1] (setting [3]) is less than 0.25 µM; in experiment [2] (setting [4]), 1 to 5 µM.
For the compound `Cc1cc([C@@H](C)Nc2ccc(Cl)nc2C(=O)NS(C)(=O)=O)c2nc(N3CCC(c4nnc(C5CCC5)o4)CC3)n(C)c(=O)c2c1` [Compound 629, (R)-6-chloro-3-((1-(2-(4-(5-cyclobutyl-1,3,4-oxadiazol-2-yl)piperidin-1-yl)-3,6-dimethyl-4-oxo-3,4-dihydroquinazolin-8-yl)ethyl)amino)-N-(methylsulfonyl) picolinamide], the IC50 in experiment [1] (setting [3]) is less than 0.25 µM; in experiment [2] (setting [4]) it was 1 to 5 µM.
Turning to `Cc1cc([C@@H](C)Nc2ccc(Cl)nc2C(=O)NS(C)(=O)=O)c2nc(N3CCC(c4c(F)cnn4C4CC4)CC3)n(C)c(=O)c2c1` [Compound 455, (R)-6-chloro-3-((1-(2-(4-(1-cyclopropyl-4-fluoro-1H-pyrazol-5-yl)piperidin-1-yl)-3,6-dimethyl-4-oxo-3,4-dihydroquinazolin-8-yl)ethyl)amino)-N-(methylsulfonyl) picolinamide], the results for the IC50 in experiment [1] (setting [3]) and in experiment [2] (setting [4]) were less than 0.25 µM and 1 to 5 µM, respectively.
As to `Cc1cc([C@@H](C)Nc2ccc(Cl)nc2C(=O)NS(C)(=O)=O)c2nc(N3Cc4cccc(-c5cncn5C)c4C3)n(C)c(=O)c2c1` [Compound 674, (R)-6-chloro-3-((1-(3,6-dimethyl-2-(4-(1-methyl-1H-imidazol-5-yl)isoindolin-2-yl)-4-oxo-3,4-dihydroquinazolin-8-yl)ethyl)amino)-N-(methylsulfonyl) picolinamide], the figures for the IC50 in experiment [1] (setting [3]) and in experiment [2] (setting [4]) were 0.25 to 0.5 µM and no less than 5 µM, respectively.
With `Cc1cc([C@@H](C)Nc2ccc(Cl)nc2C(=O)NS(C)(=O)=O)c2nc(N3CCN(c4ccn(C)n4)CC3)n(C)c(=O)c2c1` [Compound 187, (R)-6-chloro-3-((1-(3,6-dimethyl-2-(4-(1-methyl-1H-pyrazol-3-yl)piperazin-1-yl)-4-oxo-3,4-dihydroquinazolin-8-yl)ethyl)amino)-N-(methylsulfonyl) picolinamide], the IC50 in experiment [1] (setting [5]) was less than 0.25 µM; in experiment [2] (setting [6]), 1 to 5 µM.
Regarding `Cc1cc([C@@H](C)Nc2ccc(Cl)nc2C(=O)NS(C)(=O)=O)c2nc(-c3ccc4nn(C(F)F)cc4c3)n(C)c(=O)c2c1` [Compound 836, (R)-6-chloro-3-((1-(2-(2-(difluoromethyl)-2H-indazol-5-yl)-3,6-dimethyl-4-oxo-3,4-dihydroquinazolin-8-yl)ethyl)amino)-N-(methylsulfonyl) picolinamide], the IC50 in experiment [1] (setting [3]) is less than 0.25 µM; in experiment [2] (setting [4]), 1 to 5 µM.
With `Cc1cc([C@@H](C)Nc2ccc(Cl)nc2C(=O)NS(C)(=O)=O)c2nc([C@@H]3CCCN(c4ccccn4)C3)n(C)c(=O)c2c1` (relative stereo) [Compound 212, 6-chloro-3-(((R)-1-(3,6-dimethyl-4-oxo-2-((R*)-1-(pyridin-2-yl)piperidin-3-yl)-3,4-dihydroquinazolin-8-yl)ethyl)amino)-N-(methylsulfonyl) picolinamide], the IC50 is less than 0.25 µM in experiment [1] (setting [5]) and 1 to 5 µM in experiment [2] (setting [6]).
Turning to `Cc1cc([C@@H](C)Nc2ccc(Cl)nc2C(=O)NS(C)(=O)=O)c2nc(N3C[C@@H]4[C@H](C3)[C@H]4c3cnn(C)n3)n(C)c(=O)c2c1` [Compound 409, 6-chloro-3-(((R)-1-(3,6-dimethyl-2-((1R,5S,6R)-6-(2-methyl-2H-1,2,3-triazol-4-yl)-3-azabicyclo[3.1.0]hexan-3-yl)-4-oxo-3,4-dihydroquinazolin-8-yl)ethyl)amino)-N-(methylsulfonyl) picolinamide], the IC50 is less than 0.25 µM in experiment [1] (setting [5]) and 1 to 5 µM in experiment [2] (setting [6]).
For `COc1cc(O[C@H]2CCN(c3nc4c([C@@H](C)Nc5ccc(Cl)nc5C(=O)NS(C)(=O)=O)cc(C)cc4c(=O)n3C)C2)c(F)cn1` [Compound 611, 6-chloro-3-(((R)-1-(2-((S)-3-((5-fluoro-2-methoxypyridin-4-yl)oxy)pyrrolidin-1-yl)-3,6-dimethyl-4-oxo-3,4-dihydroquinazolin-8-yl)ethyl)amino)-N-(methylsulfonyl) picolinamide], the IC50 in experiment [1] (setting [3]) is 0.25 to 0.5 µM; in experiment [2] (setting [4]), no less than 5 µM.
Consider `Cc1cc([C@@H](C)Nc2ccc(Cl)nc2C(=O)NS(C)(=O)=O)c2nc(N3CCC(n4nccc4N(C)C)CC3)n(C)c(=O)c2c1` [Compound 309, (R)-6-chloro-3-((1-(2-(4-(5-(dimethylamino)-1H-pyrazol-1-yl)piperidin-1-yl)-3,6-dimethyl-4-oxo-3,4-dihydroquinazolin-8-yl)ethyl)amino)-N-(methylsulfonyl) picolinamide], for which the IC50 in experiment [1] (setting [5]) is 0.25 to 0.5 µM; in experiment [2] (setting [6]) it was no less than 5 µM.
Regarding `Cc1cc([C@@H](C)Nc2ccc(Cl)nc2C(=O)NS(C)(=O)=O)c2nc(N3CCc4nocc4C3)n(C)c(=O)c2c1` [Compound 332, (R)-6-chloro-3-((1-(2-(6,7-dihydroisoxazolo[4,3-c]pyridin-5(4H)-yl)-3,6-dimethyl-4-oxo-3,4-dihydroquinazolin-8-yl)ethyl)amino)-N-(methylsulfonyl) picolinamide], the figures for the IC50 in experiment [1] (setting [5]) and in experiment [2] (setting [6]) were less than 0.25 µM and 1 to 5 µM, respectively.
For `Cc1cc([C@@H](C)Nc2ccc(Cl)nc2C(=O)NS(C)(=O)=O)c2nc(N3CCn4nc(C)cc4C3)n(C)c(=O)c2c1` [Compound 166], in that order: less than 0.25 µM and 1 to 5 µM.
With `Cc1cc([C@@H](C)Nc2ccc(Cl)nc2C(=O)NS(C)(=O)=O)c2nc(N3CCC(c4cnc(C(F)F)cn4)CC3)n(C)c(=O)c2c1` [Compound 428, (R)-6-chloro-3-((1-(2-(4-(5-(difluoromethyl)pyrazin-2-yl)piperidin-1-yl)-3,6-dimethyl-4-oxo-3,4-dihydroquinazolin-8-yl)ethyl)amino)-N-(methylsulfonyl) picolinamide], the IC50 in experiment [1] (setting [5]) was in the range of 0.25 to 0.5 µM; in experiment [2] (setting [6]) it was 1 to 5 µM.
As for `Cc1cc([C@@H](C)Nc2ccc(Cl)nc2C(=O)NS(C)(=O)=O)c2nc(N3C[C@@H]4C[C@H]3CN4c3ncc(Cl)cn3)n(C)c(=O)c2c1` [Compound 667, 6-chloro-3-(((R)-1-(2-((1S,4S)-5-(5-chloropyrimidin-2-yl)-2,5-diazabicyclo [2.2.1]heptan-2-yl)-3,6-dimethyl-4-oxo-3,4-dihydroquinazolin-8-yl)ethyl)amino)-N-(methylsulfonyl) picolinamide], the figures for the IC50 in experiment [1] (setting [3]) and in experiment [2] (setting [4]) were 0.5 to 1 µM and no less than 5 µM, respectively.
As for `Cc1cc([C@@H](C)Nc2ccc(Cl)nc2C(=O)NS(C)(=O)=O)c2nc(N3CCC(c4cc(N)n(C)n4)CC3)n(C)c(=O)c2c1` [Compound 338, (R)-3-((1-(2-(4-(5-amino-1-methyl-1H-pyrazol-3-yl)piperidin-1-yl)-3,6-dimethyl-4-oxo-3,4-dihydroquinazolin-8-yl)ethyl)amino)-6-chloro-N-(methylsulfonyl) picolinamide], the values for the IC50 in experiment [1] (setting [5]) and in experiment [2] (setting [6]) were less than 0.25 µM and 1 to 5 µM, respectively.
With `Cc1cc([C@@H](C)Nc2ccc(Cl)nc2C(=O)NS(C)(=O)=O)c2nc(-c3ccc4nc(C)cn4c3)n(C)c(=O)c2c1` [Compound 844, (R)-6-chloro-3-((1-(3,6-dimethyl-2-(2-methylimidazo[1,2-a]pyridin-6-yl)-4-oxo-3,4-dihydroquinazolin-8-yl)ethyl)amino)-N-(methylsulfonyl) picolinamide], the IC50 lay within 0.25 to 0.5 µM in experiment [1] (T47D (PI3Kα-H1047R) cell line, phospho-AKT(S473) HTRF) and 1 to 5 µM in experiment [2] (SKBR3 (PI3Kα-Wild Type) cell line, phospho-AKT(S473) HTRF).
In the case of `Cc1cc([C@@H](C)Nc2ccc(Cl)nc2C(=O)NS(C)(=O)=O)c2nc(N3CCC(c4nn(C5COC5)cc4F)CC3)n(C)c(=O)c2c1` [Compound 759, (R)-6-chloro-3-((1-(2-(4-(4-fluoro-1-(oxetan-3-yl)-1H-pyrazol-3-yl)piperidin-1-yl)-3,6-dimethyl-4-oxo-3,4-dihydroquinazolin-8-yl)ethyl)amino)-N-(methylsulfonyl) picolinamide], the IC50 in experiment [1] (setting [3]) lay in the range of 0.25 to 0.5 µM; in experiment [2] (setting [4]), 1 to 5 µM.
In the case of `Cc1cc([C@@H](C)Nc2ccc(Cl)nc2C(=O)NS(C)(=O)=O)c2nc(N3CCC(c4cn(C(C)C)nn4)CC3)n(C)c(=O)c2c1` [Compound 573, (R)-6-chloro-3-((1-(2-(4-(1-isopropyl-1H-1,2,3-triazol-4-yl)piperidin-1-yl)-3,6-dimethyl-4-oxo-3,4-dihydroquinazolin-8-yl)ethyl)amino)-N-(methylsulfonyl) picolinamide], the IC50 in experiment [1] (setting [3]) is less than 0.25 µM; in experiment [2] (setting [4]), 1 to 5 µM.
On to `Cc1cc([C@@H](C)Nc2ccc(Cl)nc2C(=O)NS(C)(=O)=O)c2nc(N3CC[C@@H](Oc4ncc(F)cn4)C3)n(C)c(=O)c2c1` [Compound 538, 6-chloro-3-(((R)-1-(2-((R)-3-((5-fluoropyrimidin-2-yl)oxy)pyrrolidin-1-yl)-3,6-dimethyl-4-oxo-3,4-dihydroquinazolin-8-yl)ethyl)amino)-N-(methylsulfonyl) picolinamide], for which the results for the IC50 in experiment [1] (setting [3]) and in experiment [2] (setting [4]) were less than 0.25 µM and 1 to 5 µM, respectively.
